Experiments:
yeast DNA = test: Photobinding to yeast DNA in vivo (radiolabelled drug plus 365 nm light); format: binding, Saccharomyces cerevisiae
Procedure: (§1) The radioactivity of an aliquot (0.1 ml) of this solution was measured in 5 ml of scintillation mixture (Nuclear Entreprise, Ltd., Edinburgh, Scotland, NE 250).
(§2) For the in vivo determinations stationary phase cells of the haploid wild type strain N 123 were prepared as previously described.
(§3) 2 ml cell suspensions were exposed to several doses of 365 nm light. In parallel, non irradiated samples were incubated for the same periods. Immediately after incubation and/or irradiation, the samples were centrifuged and the pellet was washed 3 times with 5 ml of saline (0.9% NaCl). The washed cell pellet was resuspended in 1 ml of saline and 1 ml of 2 N NaOH was added in order to hydrolyze the RNA. The suspension was incubated overnight in the dark at room temperature, then cooled down on ice, and 2 ml of 50% TCA were added slowly. The samples were left 20 minutes on ice and the precipitated DNA was filtered on a glass fiber filter disc (Whatman GF/A, 2.1 cm diameter). In some cases the filtrate containing the acid-soluble material was kept aside, and the radioactivity of an aliquot added to 5 ml of NE250 scintillation mixture measured. The precipitate was washed 3 times with 5 ml of 5% cold TCA and 5 ml of 70% ethanol. The filters were then dried and the radioactivity measured in plastic counting vials containing 5 ml of scintillation mixture (NE 250) in a Tricarb Packard scintillation spectrophotometer.

yeast RNA = test: Photobinding to yeast RNA in vivo (radiolabelled drug plus 365 nm light); format: binding, Saccharomyces cerevisiae; settings: for cpm for 10^8 cells: RNA
Procedure: as §1, §2, §3

[1] = 5 min, 6.3 × 10^4 ergs.mm^-2 365 nm
[2] = 10 min, 12.6 × 10^4 ergs.mm^-2 365 nm
[3] = 15 min, 18.9 × 10^4 ergs.mm^-2 365 nm
[4] = 20 min, 25.2 × 10^4 ergs.mm^-2 365 nm
[5] = 30 min, 38.8 × 10^4 ergs.mm^-2 365 nm
[6] = 40 min, 50.4 × 10^4 ergs.mm^-2 365 nm
[7] = 60 min, 75.6 × 10^4 ergs.mm^-2 365 nm
[8] = binding to RNA, 5-60 min, no 365 nm light

Compound: CCOC(=O)c1cc2cc3ccoc3cc2oc1=O [Example 3-CPs, 3-carboethoxypsoralen]
- Molecules 3-CPs/μg DNA (yeast DNA; 5-60 min, no 365 nm light): 0.012 Molecules 3-CPs/μg DNA × 10^14
- cpm for 10^8 cells (yeast DNA; 5-60 min, no 365 nm light): 67.75 cpm for 10^8 cells
- μg 3-CPs/μg DNA (yeast DNA; 5-60 min, no 365 nm light): 0.05 μg 3-CPs/μg DNA × 10^-2
- molecules linked to DNA per cell (yeast DNA; 18.9×10^3 J/m^2, 5×10^-5 M): 10.5×10^6 molecules per cell
- binding ratio: pyrimidine bases per 1 bound molecule (yeast DNA; 18.9×10^3 J/m^2, 5×10^-5 M, on average): 2 pyrimidine bases
- Molecules 3-CPs/μg DNA (yeast DNA; [1]): 0.92 Molecules 3-CPs/μg DNA × 10^14
- cpm for 10^8 cells (yeast DNA; [1]): 5030.5 cpm for 10^8 cells
- μg 3-CPs/μg DNA (yeast DNA; [1]): 3.9 μg 3-CPs/μg DNA × 10^-2
- binding to DNA in vivo compared with in vitro (yeast DNA; 365 nm light): higher in the in vivo condition than in vitro
- Molecules 3-CPs/μg DNA (yeast DNA; [2]): 1.34 Molecules 3-CPs/μg DNA × 10^14
- cpm for 10^8 cells (yeast DNA; [2]): 9409 cpm for 10^8 cells
- μg 3-CPs/μg DNA (yeast DNA; [2]): 5.7 μg 3-CPs/μg DNA × 10^-2
- Molecules 3-CPs/μg DNA (yeast DNA; [3]): 2.1 Molecules 3-CPs/μg DNA × 10^14
- cpm for 10^8 cells (yeast DNA; [3]): 11386.5 cpm for 10^8 cells
- μg 3-CPs/μg DNA (yeast DNA; [3]): 9 μg 3-CPs/μg DNA × 10^-2
- Molecules 3-CPs/μg DNA (yeast DNA; [4]): 2.8 Molecules 3-CPs/μg DNA × 10^14
- cpm for 10^8 cells (yeast DNA; [4]): 15650.2 cpm for 10^8 cells
- μg 3-CPs/μg DNA (yeast DNA; [4]): 12.3 μg 3-CPs/μg DNA × 10^-2
- Molecules 3-CPs/μg DNA (yeast DNA; [5]): 2.8 Molecules 3-CPs/μg DNA × 10^14
- cpm for 10^8 cells (yeast DNA; [5]): 15307 cpm for 10^8 cells
- μg 3-CPs/μg DNA (yeast DNA; [5]): 12 μg 3-CPs/μg DNA × 10^-2
- Molecules 3-CPs/μg DNA (yeast DNA; [6]): 2.6 Molecules 3-CPs/μg DNA × 10^14
- cpm for 10^8 cells (yeast DNA; [6]): 14248 cpm for 10^8 cells
- μg 3-CPs/μg DNA (yeast DNA; [6]): 11 μg 3-CPs/μg DNA × 10^-2
- Molecules 3-CPs/μg DNA (yeast DNA; [7]): 2.3 Molecules 3-CPs/μg DNA × 10^14
- cpm for 10^8 cells (yeast DNA; [7]): 16476 cpm for 10^8 cells
- μg 3-CPs/μg DNA (yeast DNA; [7]): 10 μg 3-CPs/μg DNA × 10^-2
- dark binding with DNA relative to that at lowest dose of irradiation (yeast DNA; dark, 50 minutes): around 10%
- 365 nm light dose up to which binding with DNA increases linearly, then levels off (yeast DNA; in vivo): up to 25.2×10^3 J/m^2
- amount linked to DNA compared with RNA per cell (yeast DNA; in vivo): about the same as that bound to RNA per cell
- amount linked to DNA relative to 8-MOP (yeast DNA; in vivo): about 15 times more
- binding to DNA compared with 8-MOP (yeast DNA; in vivo): binds to DNA much more efficiently than 8-MOP
- difference in photoreactivity with DNA in vivo, 3-CPs vs 8-MOP (yeast DNA; in vivo): 15 factor
- difference in photoreactivity with DNA, 3-CPs vs 8-MOP (yeast DNA; in vivo): ≤ 20 factor
- photoaffinity to DNA compared with RNA (yeast DNA; molecular basis): much higher than to RNA
- photoaffinity for RNA (yeast RNA): relatively low photoaffinity for RNA
- cpm for 10^8 cells (yeast RNA; 5-60 min, no 365 nm light): 1285 cpm for 10^8 cells
- cpm for 10^8 cells (yeast RNA; [1]): 7130 cpm for 10^8 cells
- cpm for 10^8 cells (yeast RNA; [2]): 11040 cpm for 10^8 cells
- cpm for 10^8 cells (yeast RNA; [3]): 14170 cpm for 10^8 cells
- cpm for 10^8 cells (yeast RNA; [4]): 18780 cpm for 10^8 cells
- cpm for 10^8 cells (yeast RNA; 30 min, 37.8 × 10^4 ergs.mm^-2 365 nm): 25380 cpm for 10^8 cells
- cpm for 10^8 cells (yeast RNA; [6]): 29240 cpm for 10^8 cells
- cpm for 10^8 cells (yeast RNA; [7]): 31730 cpm for 10^8 cells
- Molecules 3-CPs/μg DNA (yeast RNA; [8]): 0.0023 Molecules 3-CPs/μg DNA × 10^14
- μg 3-CPs/μg DNA (yeast RNA; [8]): 0.01 μg 3-CPs/μg DNA × 10^-2

— patent publication US4260630A, “Skin diseases” (priority 1977, dated 1981)
